According to US12023387B2, “NIR-II emissive luminogens” (THE HONG KONG UNIVERSTIY OF SCIENCE AND TECHNOLOGY, priority 2018, dated 2024):

What was measured:
nude mouse = assay: In vivo dynamic NIR-II fluorescence imaging after intravenous injection; details: i.v. injection of TSPCI solution in water, images 1-5 s after injection, 808 nm excitation, 1000 nm long-pass filter
Protocol: NIR-I fluorescence imaging was performed using the Maestro in vivo imaging system (CRI, Inc.). To acquire fluorescence of an NIR-I AIEgen (TTD), a 605 nm (+25 nm) bandpass filter and a 645 nm longpass filter were selected as the excitation filter and the emission filter, respectively. NIR-II imaging was performed using the home-built NIR-II in vivo imaging system. The excitation light was provided by an 808 nm diode laser. The emitted light from the TSPCI was filtered through a 1000 nm long-pass filter, which was coupled with a two-dimensional InGaAs array camera (with spectral response range of 900-1700 nm, Photonic Science) for NIR-II fluorescence signal collection. The excitation power density at the imaging plane was 6.4 mW/cm^2, much lower than the safe exposure limit of 330 mW/cm^2 at 808 nm determined by the International Commission on Nonionizing Radiation Protection. […]
TSPCI was added to water under sonication to provide a TSPCI solution. […] FIG. 7A depicts an NIR-II fluorescence image of the nude mouse before intravenous injection of TSPCI solution. FIG. 7B depicts an NIR-II fluorescence image of the nude mouse one second after injection of TSPCI solution. FIG. 7C depicts an NIR-II fluorescence image of the nude mouse two seconds after injection of TSPCI solution. FIG. 7D depicts an NIR-II fluorescence image of the nude mouse three seconds after injection of TSPCI solution. […]

[1] = AIE property: photoluminescence in THF/water mixtures with varying water fraction; format: physicochemical
Protocol: FIG. 4 depicts (A) an image of TSPCI powder in daylight; (B) the UV-vis absorption spectrum of TSPCI; (C) the photoluminescence (PL) spectra of TSPCI in THF and THF/water mixtures with different water fractions (fw); and (D) the plot of relative PL intensities at 950 nm versus the fw (concentration: 10 μM; excitation wavelength: 808 nm).
The AIE property of TSPCI was investigated by varying the water fractions (fw) in tetrahydrofuran (THF)/water mixtures (FIG. 4C). […] The strongest emission intensity at ˜950 nm reached its maximum value at 90 vol % water content, which was ˜35-fold higher than that in the pure THF due to the restriction of intramolecular rotation ([…]).

[2] = UV-vis absorption spectrum in THF solution; format: physicochemical; details: THE (THF) solution, 10 μM

wavelength of strongest emission intensity ([1]; THF/water mixtures, excitation 808 nm): ~950 nm | emission spectrum range in aggregate state ([1]; aggregate state, bright emission, NIR-II): 1000-1700 nm | emission intensity enhancement versus pure THF ([1]; at ~950 nm, 90 vol % water content in THF/water, 10 μM, excitation 808 nm): ~35 fold | emission in pure THF solution ([1]; pure THF (fw=0)): no emission was observed | maximal absorption wavelength [2]: 682 nm
Structure (SMILES): N#CC(C#N)=C1C(=C2C=C(/C=C/c3ccc(N(c4ccccc4)c4ccccc4)cc3)OC(/C=C/c3ccc(N(c4ccccc4)c4ccccc4)cc3)=C2)C(=C(C#N)C#N)c2ccccc21 [TSPCI]
in vivo NIR-II imaging performance (nude mouse): high contrast and penetration depth
